Read-outs that look alike come from different tables or passages of the source.
Assays:
Assay type in all cases: cell-based
[1] = tested on: A. niger IMI 149007; experiment: Microstatic activity, MIC in tryptone soy broth; settings: Aspergillus niger, IMI149007, 120 h, 25° C., 5 days
Experimental: (§1) For this, in each case a 40 percent strength by weight solution of a diol in propylene glycol was prepared at 60° C. This solution was diluted with a double-strength soy solution (double-strength tryptone soy broth) as nutrient medium in the volume ratio 1:1. Further dilution with soy solution produced solutions with the following concentrations: 400 000 ppm (40%), 200 000 ppm (20%), 100 000 ppm (10%), 50 000 ppm (5%), 25 000 ppm (2.5%), 12 500 ppm (1.25%), 6250 ppm (0.625%), 3125 ppm (0.3125%). Pure soy solution was used as negative control. The positive control used was a solution of 5 ml of soy solution which has been treated with 0.1 ml of the respective microorganism. The test solutions consisted of 5 ml of the above-described soy solutions of the diols in the particular concentration which have been mixed with 0.1 ml of the respective microorganism. The samples and controls were incubated in the case of the bacteria at 30° C. for 48 hours, and in the case of fungi over 5 days at 25° C. In each case, the MIC (Minimum Inhibitory Concentration) value was determined. This value indicates the minimum concentration above which the growth of the microorganisms was visibly hindered compared to the corresponding sample without addition of the diol. […] For example, this was evident from the occurrence of clouding or visible growth of the microorganism. […] The MIC value stated is a range between the next higher concentration of a positive test and the same and/or lower concentration of a first negative test.

[2] = tested on: C. albicans NCPF 3179; experiment: Microstatic activity, MIC in tryptone soy broth; settings: 25° C., 5 days; for MIC: Candida albicans, NCPF3179, 120 h
Experimental: as §1

[3] = tested on: E. coli NCIMB 8545; experiment: Microstatic activity, MIC in tryptone soy broth; settings: Escherichia coli, NCIMB8545, 30° C., 48 hours
Experimental: as §1

[4] = tested on: P. aeruginosa NCIMB 10421; experiment: Microstatic activity, MIC in tryptone soy broth; settings: Pseudomonas aeruginosa, NCIMB10421, 30° C., 48 hours
Experimental: as §1

[5] = tested on: P. vulgaris NCIMB 4175; experiment: Microstatic activity, MIC in tryptone soy broth; settings: Proteus vulgaris, NCIMB4175, 30° C., 48 hours
Experimental: as §1

[6] = tested on: S. aureus NCIMB 9578; experiment: Microstatic activity, MIC in tryptone soy broth; settings: Staphylococcus aureus, NCIMB9578, 30° C., 48 hours
Experimental: as §1

[7] = tested on: series of tested microorganisms (bacteria and fungi); experiment: Microstatic activity, highest MIC from the series of tested microorganisms; settings: highest measured MIC from the series of tested microorganisms
Experimental: The following microorganisms were used;to test the biocidal effect against various bacteria and fungi: In each case, the MIC (Minimum Inhibitory Concentration) value was determined. This value indicates the minimum concentration above which the growth of the microorganisms was visibly hindered compared to the corresponding sample without addition of the diol. The MIC value stated is a range between the next higher concentration of a positive test and the same and/or lower concentration of a first negative test. In the last line of each of the tables below, a “maximum” value is listed. This value indicates the highest measured MIC value in each case from the series of tested microorganisms.

[8] = tested on: A. niger ATCC 16404; experiment: Preservation stress test, example formulation 1 (standard emulsion O/W); settings: 1% active substance
Experimental: (§2) Preservation stress tests (PSTs) were carried out in order to determine the preserving activity of the diols. In the preservation stress test, this is simulated through artificial loadings with microorganisms. These can either be inoculated as mixed population or individually in mixtures independent of one another. The inoculated product samples are incubated under defined conditions and, after defined times, samples are taken in order to determine the germ loading. In the case of adequate preservation, the number of microorganisms should, depending on the type, either decrease or remain constant in order to satisfy the requirements specified, e.g. in Ph. Eur. 6.0. To investigate the preserving effect of the diols, application-typical amounts of the diols were incorporated into example formulations. […] [table] These example formulations were used to prepare various mixtures which each comprised 1% active substance or comprised water instead of the active substance as placebo mixtures. These mixtures were in each case inoculated with the test germs such that a germ loading of 10^5-10^6 CFU/g was present in the test mixture. The bacteria were either used individually for the inoculation or as a mixed culture. To determine the starting germ count, immediately after inoculation, an aliquot was taken, diluted in dilution medium (phosphate buffer, 0.07 molar pH 7.4 (+/−0.2), with 1% Tween 80+0.3% soya lecithin), and the surviving germ count was determined in the dilution stages 10^−1 to 10^−3. The inoculated product samples then incubated for a total of 28 d at 20-25° C. After 2 d, 7 d, 14 d and after 28 d, aliquots were taken and diluted in dilution medium (phosphate buffer, 0.07 molar pH 7.4 (+/−0.2), with 1% Tween 80+0.3% soya lecithin). The surviving germ counts were determined in the dilution stages 10^−1 to 10^−4. The reference point taken for determining the reduction in germ count was the respective initial value of the sample. The results were given as logarithmic reductions.

[9] = tested on: C. albicans ATCC 10231; experiment: as above; settings: 1% active substance
Experimental: as §2

[10] = tested on: E. coli ATCC 10536; experiment: Preservation stress test, example formulation 2 (roll-on deodorant formulation); settings: 1% active substance
Experimental: as §2

[11] = tested on: P. aeruginosa ATCC 15442; experiment: as above; settings: 1% active substance
Experimental: as §2

[12] = tested on: S. aureus ATCC 6538; experiment: as above; settings: 1% active substance
Experimental: as §2

[13] = lower limit of MIC range, read-out: MIC value (ppm of diol), from
[14] = upper limit of MIC range, read-out: MIC value (ppm of diol), to
[15] = lower limit, read-out: Maximum MIC value (ppm of diol), from

MIC [1, 13] | MIC [1, 14] | MIC [2, 14] | MIC [3, 13] | MIC [3, 14] | MIC [4, 13] | MIC [5, 13] | MIC [5, 14] | MIC [6, 13] | MIC [6, 14] | MIC [7, 15] | Compound | Microbicidal activity given as logarithmic reduction in germ count ([8]; 48 h) | Microbicidal activity given as logarithmic reduction in germ count ([8]; 7 d) | Microbicidal activity given as logarithmic reduction in germ count ([8]; 14 d) | Microbicidal activity given as logarithmic reduction in germ count ([9]; 48 h) | Microbicidal activity given as logarithmic reduction in germ count ([9]; 7 d) | Microbicidal activity given as logarithmic reduction in germ count ([9]; 14 d) | Microbicidal activity given as logarithmic reduction in germ count ([10]; 48 h) | Microbicidal activity given as logarithmic reduction in germ count ([10]; 7 d) | Microbicidal activity given as logarithmic reduction in germ count ([10]; 14 d) | other results
> 12.5 mg/mL | ≤ 25 mg/mL | ≤ 50 mg/mL | > 25 mg/mL | ≤ 50 mg/mL | > 12.5 mg/mL | > 25 mg/mL | ≤ 50 mg/mL | > 25 mg/mL | ≤ 50 mg/mL | > 25 mg/mL | CCCC(O)CO (stereo not shown) [1,2-Pentanediol, 1,2-pentanediol, reference compound] | 0 log. Red. | 0 log. Red. | 0 log. Red. | 0 log. Red. | 0 log. Red. | 0 log. Red. | 0 log. Red. | 1 log. Red. | 1 log. Red. | MIC [2, 13]: > 25 mg/mL; MIC [4, 14]: ≤ 25 mg/mL; MIC ([7]; upper limit, read-out: Maximum MIC value (ppm of diol), to): ≤ 50 mg/mL; Microbicidal activity given as logarithmic reduction in germ count ([11]; 48 h): 0 log. Red.; Microbicidal activity given as logarithmic reduction in germ count ([11]; 7 d): 3 log. Red.; Microbicidal activity given as logarithmic reduction in germ count ([11]; 14 d): 5 log. Red.; Microbicidal activity given as logarithmic reduction in germ count ([12]; 48 h): 1 log. Red.; Microbicidal activity given as logarithmic reduction in germ count ([12]; 7 d): 1 log. Red.; Microbicidal activity given as logarithmic reduction in germ count ([12]; 14 d): 5 log. Red.
> 3.12 mg/mL | ≤ 6.25 mg/mL | ≤ 3.12 mg/mL | > 50 mg/mL | ≤ 100 mg/mL | > 100 mg/mL | > 50 mg/mL | ≤ 100 mg/mL | > 25 mg/mL | ≤ 50 mg/mL | > 100 mg/mL | CCCCCCCCC(C)(CO)CO [OMPD, 2-octyl-2-methylpropane-1,3-diol] | 0 log. Red. | 0 log. Red. | 1 log. Red. | ≧3 log. Red. | 5 log. Red. | 5 log. Red. | 0 log. Red. | ≧3 log. Red. | 5 log. Red. | MIC value (ppm of diol), from ([2]; lower limit of MIC range): >0 ppm; Microbicidal activity given as logarithmic reduction in germ count ([8]; 28 d): 1 log. Red.; Microbicidal activity given as logarithmic reduction in germ count ([9]; 28 d): 5 log. Red.; Microbicidal activity given as logarithmic reduction in germ count ([10]; 28 d): 5 log. Red.; Microbicidal activity given as logarithmic reduction in germ count ([11]; 48 h): ≧3 log. Red.; Microbicidal activity given as logarithmic reduction in germ count ([11]; 7 d): 5 log. Red.; Microbicidal activity given as logarithmic reduction in germ count ([11]; 14 d): 5 log. Red.; Microbicidal activity given as logarithmic reduction in germ count ([11]; 28 d): 5 log. Red.; Microbicidal activity given as logarithmic reduction in germ count ([12]; 48 h): ≧3 log. Red.; Microbicidal activity given as logarithmic reduction in germ count ([12]; 7 d): 5 log. Red.; Microbicidal activity given as logarithmic reduction in germ count ([12]; 14 d): 5 log. Red.; Microbicidal activity given as logarithmic reduction in germ count ([12]; 28 d): 5 log. Red.
